Assay results: US9145425B2, “Cephem compound having catechol group” (SHIONOGI & CO., LTD., priority 2010, dated 2015)
Converted amounts (≈) assume the structure as drawn. Read-outs that look alike come from different tables or passages of the source.

How the values were obtained:
Format in all cases: cell-based
[1] = tested on: Stenotrophomonas maltophilia SR21970; assay: Minimum Inhibitory Concentration (MIC), agar plate incubation, CLSI method
Protocol: (§1) The antimicrobial activity in vitro of the present compound (I) was determined.
Measurement of Minimum Inhibitory Concentration (MIC, μg/ml) was conducted according to the CLSI (Clinical and Laboratory Standards Institute) and the amount of bacteria for inoculation was 10000 cfu/spot, and Mueller-Hinton agar medium was used as the test medium, and conducted using agar plate incubation.
(§2) In the tables, the unit of the values of inhibitory activity is μg/ml.

[2] = tested on: Acinetobacter baumannii SR24396; assay: Minimum Inhibitory Concentration (MIC), agar plate incubation, Japan Society for Chemotherapy standard method
Protocol: as §1
(§3) Measurement of Minimum Inhibitory Concentration (MIC, μg/ml) was conducted according to the standard method of the Japan Society for Chemotherapy and the amount of bacteria for inoculation was 1000 cfu/spot, and sensitive disc medium was used as the test medium, and conducted using agar plate incubation.
as §2

[3] = tested on: Pseudomonas aeruginosa SR24; assay: as above
Protocol: as §1, §3, §2

[4] = tested on: Klebsiella pneumoniae ATCC 700603; assay: as above
Protocol: as §1, §3, §2

[5] = tested on: Pseudomonas aeruginosa SR27060; assay: as above
Protocol: as §1, §3, §2

[6] = Stenotrophomonas maltophilia SR21970, L-1, MBL producer strain (carbapenem resistant strain), 10000 cfu/spot, Mueller-Hinton agar medium, read-out: Minimum Inhibitory Concentration (MIC)
[7] = Acinetobacter baumannii SR24396, no enzyme, 1000 cfu/spot, sensitive disc medium, read-out: Minimum Inhibitory Concentration (MIC)
[8] = Pseudomonas aeruginosa SR24, no enzyme, ceftazidime sensitive strain, 1000 cfu/spot, sensitive disc medium, read-out: Minimum Inhibitory Concentration (MIC)
[9] = ATCC700603, Klebsiella pneumoniae ATCC 700603, SHV-18, ESBL producer strain, 1000 cfu/spot, sensitive disc medium, read-out: Minimum Inhibitory Concentration (MIC)
[10] = Pseudomonas aeruginosa SR27060, IMP-1, MBL producer strain (carbapenem resistant strain), 1000 cfu/spot, sensitive disc medium, read-out: Minimum Inhibitory Concentration (MIC)
[11] = Stenotrophomonas maltophilia SR21970, L-1, MBL producer strain (carbapenem resistant strain), 10000 cfu/spot, Mueller-Hinton agar medium
[12] = Acinetobacter baumannii SR24396, no enzyme, 1000 cfu/spot, sensitive disc medium
[13] = Pseudomonas aeruginosa SR24, no enzyme, ceftazidime sensitive strain, 1000 cfu/spot, sensitive disc medium
[14] = Klebsiella pneumoniae ATCC 700603, SHV-18, ESBL producer strain, 1000 cfu/spot, sensitive disc medium
[15] = Pseudomonas aeruginosa SR27060, IMP-1, MBL producer strain (carbapenem resistant strain), 1000 cfu/spot, sensitive disc medium
[16] = Stenotrophomonas maltophilia, SR21970, read-out: Minimum Inhibitory Concentration (MIC)
[17] = Acinetobacter baumannii, SR24396, read-out: Minimum Inhibitory Concentration (MIC)
[18] = Pseudomonas aeruginosa, SR24, read-out: Minimum Inhibitory Concentration (MIC)
[19] = Klebsiella pneumoniae, ATCC700603, read-out: Minimum Inhibitory Concentration (MIC)
[20] = Pseudomonas aeruginosa, SR27060, read-out: Minimum Inhibitory Concentration (MIC)

SMILES | MIC [1, 6] | MIC [2, 7] | MIC [3, 8] | MIC [4, 9] | MIC [5, 10] | Minimum Inhibitory Concentration (MIC) [1, 11] | Minimum Inhibitory Concentration (MIC) [2, 12] | Minimum Inhibitory Concentration (MIC) [3, 13] | Minimum Inhibitory Concentration (MIC) [4, 14] | Minimum Inhibitory Concentration (MIC) [5, 15] | further results
C[N+]1(CC2=C(C(=O)[O-])N3C(=O)[C@@H](NC(=O)/C(=N\O[C@@H](CC(=O)O)C(=O)O)c4csc(N)n4)[C@H]3SC2)[C@@H]2CC[C@H]1C[C@H](NC(=O)c1ccc(O)c(O)c1Cl)C2 (stereo partly shown) [II-9] | 0.25 µg/mL (≈ 0.309 µM) | 0.063 µg/mL (≈ 0.0779 µM) | 0.25 µg/mL (≈ 0.309 µM) | 1 µg/mL (≈ 1.24 µM) | 0.5 µg/mL (≈ 0.619 µM) | – | – | – | – | – | –
CC(C)(O/N=C(\C(=O)N[C@@H]1C(=O)N2C(C(=O)[O-])=C(C[N+]3(CCNC(=O)c4cc(O)c(O)c(F)c4)CCCC3)CS[C@H]12)c1csc(N)n1)C(=O)[O-].[Na+] [II-15] | – | – | – | – | – | 0.5 µg/mL | 0.125 µg/mL | 0.063 µg/mL | 0.125 µg/mL | 0.25 µg/mL | –
Nc1nc(C(=NOC(CC(=O)[O-])C(=O)[O-])C(=O)NC2C(=O)N3C(C(=O)[O-])=C(C[N+]45CCCC4CN(C(=O)c4cc(O)c(O)c(F)c4)CC5)CSC23)cs1.[Na+].[Na+] (stereo not shown) [II-16] | – | – | – | – | – | 0.5 µg/mL | 0.125 µg/mL | 0.125 µg/mL | 0.25 µg/mL | 0.5 µg/mL | –
C[C@@H](O/N=C(\C(=O)N[C@@H]1C(=O)N2C(C(=O)O)=C(C[N@@+]34CC[C@@H](C3)N(C(=O)c3ccc(O)c(O)c3Cl)CC4)CS[C@H]12)c1csc(N)n1)C(=O)[O-] [II-25] | 1 µg/mL (≈ 1.36 µM) | 0.063 µg/mL (≈ 0.0856 µM) | 0.125 µg/mL (≈ 0.17 µM) | 0.5 µg/mL (≈ 0.679 µM) | 1 µg/mL (≈ 1.36 µM) | – | – | – | – | – | –
Nc1nc(C(=NOC(CC(=O)[O-])C(=O)[O-])C(=O)NC2C(=O)N3C(C(=O)[O-])=C(C[N+]45CCCC4CN(C(=O)c4ccc(O)c(O)c4F)CC5)CSC23)cs1.[Na+].[Na+] (stereo not shown) [II-28] | – | – | – | – | – | 0.5 µg/mL | 0.125 µg/mL | 0.125 µg/mL | 0.25 µg/mL | 1 µg/mL | –
CC(C)(O/N=C(\C(=O)N[C@@H]1C(=O)N2C(C(=O)O)=C(C[N+]3(CCNC(=O)c4ccc(O)c(O)c4F)CCCC3)CS[C@H]12)c1csc(N)n1)C(=O)[O-] [II-29] | 0.5 µg/mL (≈ 0.68 µM) | 0.25 µg/mL (≈ 0.34 µM) | 0.125 µg/mL (≈ 0.17 µM) | 0.125 µg/mL (≈ 0.17 µM) | 0.5 µg/mL (≈ 0.68 µM) | – | – | – | – | – | –
CC(C)(O/N=C(\C(=O)N[C@@H]1C(=O)N2C(C(=O)O)=C(C[N+]3(C)[C@@H]4CC[C@H]3C[C@@H](NC(=O)c3ccc(O)c(O)c3F)C4)CS[C@H]12)c1csc(N)n1)C(=O)[O-] (stereo partly shown) [II-36] | 1 µg/mL (≈ 1.31 µM) | 0.25 µg/mL (≈ 0.328 µM) | 0.25 µg/mL (≈ 0.328 µM) | 0.5 µg/mL (≈ 0.656 µM) | 0.5 µg/mL (≈ 0.656 µM) | – | – | – | – | – | –
C[N+]1(CC2=C(C(=O)[O-])N3C(=O)[C@@H](NC(=O)/C(=N\O[C@@H](CC(=O)[O-])C(=O)[O-])c4csc(N)n4)[C@H]3SC2)[C@@H]2CC[C@H]1C[C@@H](NC(=O)c1ccc(O)c(O)c1F)C2.[Na+].[Na+] (stereo partly shown) [II-37] | – | – | – | – | – | 0.5 µg/mL | 0.25 µg/mL | 0.25 µg/mL | 0.5 µg/mL | 0.25 µg/mL | –
CC(C)(O/N=C(\C(=O)N[C@@H]1C(=O)N2C(C(=O)O)=C(C[N+]3(C)[C@@H]4CC[C@H]3C[C@@H](NC(=O)c3cc(O)c(O)c(F)c3)C4)CS[C@H]12)c1csc(N)n1)C(=O)[O-] (stereo partly shown) [II-47] | 0.5 µg/mL (≈ 0.656 µM) | 0.25 µg/mL (≈ 0.328 µM) | 0.063 µg/mL (≈ 0.0827 µM) | 0.25 µg/mL (≈ 0.328 µM) | 0.25 µg/mL (≈ 0.328 µM) | – | – | – | – | – | –
C[N+]1(CC2=C(C(=O)[O-])N3C(=O)[C@@H](NC(=O)/C(=N\O[C@@H](CC(=O)[O-])C(=O)[O-])c4csc(N)n4)[C@H]3SC2)[C@@H]2CC[C@H]1C[C@@H](NC(=O)c1cc(O)c(O)c(F)c1)C2.[Na+].[Na+] (stereo partly shown) [II-48] | – | – | – | – | – | 0.5 µg/mL | 0.125 µg/mL | 0.063 µg/mL | 0.25 µg/mL | 0.25 µg/mL | –
CC(C)(O/N=C(\C(=O)N[C@@H]1C(=O)N2C(C(=O)O)=C(C[N+]3(CCNC(=O)c4cc(O)c(O)c(Cl)c4)CCCC3)CS[C@H]12)c1csc(N)n1)C(=O)[O-] [II-49] | 0.5 µg/mL (≈ 0.665 µM) | 0.125 µg/mL (≈ 0.166 µM) | 0.125 µg/mL (≈ 0.166 µM) | 0.125 µg/mL (≈ 0.166 µM) | 0.5 µg/mL (≈ 0.665 µM) | – | – | – | – | – | –
CC(C)(O/N=C(\C(=O)N[C@@H]1C(=O)N2C(C(=O)O)=C(C[N+]3(C)[C@@H]4CC[C@H]3C[C@@H](NC(=O)c3cc(O)c(O)c(Cl)c3)C4)CS[C@H]12)c1csc(N)n1)C(=O)[O-] (stereo partly shown) [II-50] | – | – | – | – | – | – | – | – | – | – | MIC [1, 16]: 0.5 µg/mL (≈ 0.642 µM); MIC [2, 17]: 0.25 µg/mL (≈ 0.321 µM); MIC [3, 18]: 0.125 µg/mL (≈ 0.161 µM); MIC [4, 19]: 0.25 µg/mL (≈ 0.321 µM); MIC [5, 20]: 0.5 µg/mL (≈ 0.642 µM)
C[N+]1(CC2=C(C(=O)[O-])N3C(=O)C(NC(=O)C(=NOC(CC(=O)O)C(=O)[O-])c4csc(N)n4)C3SC2)C2CCC1CC(NC(=O)c1cc(O)c(O)c(Cl)c1)C2.[Na+] (stereo not shown) [II-51] | – | – | – | – | – | 0.25 µg/mL | 0.125 µg/mL | 0.125 µg/mL | 0.25 µg/mL | 0.25 µg/mL | –
Nc1nc(/C(=N/O[C@@H](CC(=O)[O-])C(=O)[O-])C(=O)N[C@@H]2C(=O)N3C(C(=O)[O-])=C(C[N+]45CCC[C@H]4CN(C(=O)c4cc(O)c(O)c(Cl)c4)CC5)CS[C@H]23)cs1.[Na+].[Na+] (stereo partly shown) [II-57] | – | – | – | – | – | 0.5 µg/mL | 0.063 µg/mL | 0.063 µg/mL | 0.25 µg/mL | 0.5 µg/mL | –
Nc1nc(C(=NOC(CC(=O)[O-])C(=O)[O-])C(=O)NC2C(=O)N3C(C(=O)[O-])=C(C[N+]45CCC(CNC(=O)c6ccc(O)c(O)c6Cl)(CC4)CC5)CSC23)cs1.[Na+].[Na+] (stereo not shown) [II-58] | – | – | – | – | – | 0.5 µg/mL | 0.125 µg/mL | 0.25 µg/mL | 0.5 µg/mL | 0.5 µg/mL | –
CC[C@H](O/N=C(\C(=O)N[C@@H]1C(=O)N2C(C(=O)O)=C(C[N+]34CCC(CNC(=O)c5ccc(O)c(O)c5Cl)(CC3)CC4)CS[C@H]12)c1csc(N)n1)C(=O)[O-] [II-59] | 1 µg/mL (≈ 1.28 µM) | 0.125 µg/mL (≈ 0.161 µM) | 0.25 µg/mL (≈ 0.321 µM) | 0.5 µg/mL (≈ 0.642 µM) | 0.5 µg/mL (≈ 0.642 µM) | – | – | – | – | – | –
CC(C)(O/N=C(\C(=O)N[C@@H]1C(=O)N2C(C(=O)O)=C(C[N+]3(C)[C@@H]4CC[C@H]3C[C@@H](NC(=O)c3ccc(O)c(O)c3Cl)C4)CS[C@H]12)c1nsc(N)n1)C(=O)[O-] (stereo partly shown) [II-63] | 0.5 µg/mL (≈ 0.642 µM) | 0.125 µg/mL (≈ 0.16 µM) | 0.063 µg/mL (≈ 0.0808 µM) | 1 µg/mL (≈ 1.28 µM) | 0.5 µg/mL (≈ 0.642 µM) | – | – | – | – | – | –
CC(C)[C@H](O/N=C(\C(=O)N[C@@H]1C(=O)N2C(C(=O)O)=C(C[N@+]3(C)[C@@H]4CC[C@H]3C[C@@H](NC(=O)c3ccc(O)c(O)c3Cl)C4)CS[C@H]12)c1csc(N)n1)C(=O)[O-] [III-3] | 0.5 µg/mL (≈ 0.631 µM) | 0.125 µg/mL (≈ 0.158 µM) | 0.125 µg/mL (≈ 0.158 µM) | 0.25 µg/mL (≈ 0.316 µM) | 0.5 µg/mL (≈ 0.631 µM) | – | – | – | – | – | –
CC(C)(O/N=C(\C(=O)N[C@@H]1C(=O)N2C(C(=O)O)=C(C[N+]34CCCC3(CNC(=O)c3ccc(O)c(O)c3Cl)CCC4)CS[C@H]12)c1csc(N)n1)C(=O)[O-] (stereo partly shown) [III-5] | – | – | – | – | – | – | – | – | – | – | MIC [1, 16]: 0.25 µg/mL (≈ 0.321 µM); MIC [2, 17]: 0.25 µg/mL (≈ 0.321 µM); MIC [3, 18]: 0.125 µg/mL (≈ 0.161 µM); MIC [4, 19]: 0.125 µg/mL (≈ 0.161 µM); MIC [5, 20]: 0.5 µg/mL (≈ 0.642 µM)
C[N+]1(CC2=C(C(=O)[O-])N3C(=O)C(NC(=O)C(=NOC(CC(=O)O)C(=O)[O-])c4csc(N)n4)C3SC2)C2CCC1CC(NC(=O)c1ccc(O)c(O)c1C(F)(F)F)C2.[Na+] (stereo not shown) [III-14] | – | – | – | – | – | 0.25 µg/mL | 0.125 µg/mL | 0.25 µg/mL | 0.5 µg/mL | 0.5 µg/mL | –
